Measurements published in patent US9834526B2 (MERCK SHARP & DOHME CORP., priority 2013, dated 2017).
pIC50: −log10 of the molar value.

Target: T1, wildtype HIV-1 protease (Human immunodeficiency virus type 1 group M subtype B, UniProt P04585)
T1 construct: preincubated with the HIV-1 protease (wild type) enzyme in assay buffer; made in house; host or cells: Escherichia coli
Test: Inhibition of microbial expressed HIV protease (Pepcleav)
Assay type: biochemical
Conditions: wild type HIV-1 protease expressed in E. coli, 20 pM enzyme, 400 micromolar peptide substrate, pH 5.5, LC-MS readout; mean of at least two independent experiments
Protocol: Assay for Inhibition of Microbial Expressed HIV Protease (“Pepcleav”)
Studies of the inhibition of the wildtype HIV-1 protease (which was expressed in Escherichia coli) were carried out with a peptide substrate [Val-Ser-Gln-Asn-(βnaphthyl)Ala-Pro-Ile-Val (SEQ ID NO:1)]. The inhibitor was first preincubated with the HIV-1 protease (wild type) enzyme in assay buffer (50 mM sodium acetate, pH 5.5, 100 mM NaCl, and 0.1% BSA) for 30 minutes at room temperature. Substrate was added to 400 micromolar in a total volume of 20 microliters containing 20 picomolar HIV-1 protease (final) and the reaction was incubated for 1 hour at 30° C. The reaction was quenched with the addition of formic acid and indinavir to 0.012% and 150 nM final concentrations, respectively. The product formation was determined after separation of product and substrate on a Zorbax Eclipse XDB-C18 column connected to an API 4000 mass spectrometer (Applied Biosystems) with multiple reaction monitoring (transitions were 644.5/428.9 and 615.4/422.2 (M1/M3) for product and indinavir respectively). The extent of inhibition of the reaction was determined from the peak area of the products. Analysis of the products, independently synthesized, provided quantitation standards and confirmation of the product composition.

| Structure (SMILES) | pIC50 |
| --- | --- |
| COC(=O)N[C@H](C(=O)Nc1ccccc1CC[C@@H]1CN[C@H](C)[C@@H](CSc2ncnc3c2cnn3C)O1)C(c1ccccc1)c1ccccc1 [Example 11, methyl N-[(1S)-1-benzhydryl-2-[[2-[2-[(2R,5R,6S)-5-methyl-6-[(1-methylpyrazolo[3,4-d]pyrimidin-4-yl)sulfanylmethyl]morpholin-2-yl]ethyl]phenyl]amino]-2-oxo-ethyl]carbamate] | 7.93 |
| COC(=O)N[C@H](C(=O)Nc1ccccc1CC[C@@H]1CN[C@H](C)[C@@H](CSc2ccc(C)c(C)c2)O1)C(c1ccccc1)c1ccccc1 [Example 12, methyl N-[(1S)-1-benzhydryl-2-[[2-[2-[(2R,5R,6S)-6-[(3,4-dimethylphenyl)sulfanylmethyl]-5-methyl-morpholin-2-yl]ethyl]phenyl]amino]-2-oxo-ethyl]carbamate] | 7.93 |
| COC(=O)N[C@H](C(=O)Nc1ccccc1CC[C@@H]1CN[C@H](C)[C@@H](CSc2nncs2)O1)C(c1ccccc1)c1ccccc1 [Example 13, methyl N-[(1S)-1-benzhydryl-2-[[2-[2-[(2R,5R,6S)-5-methyl-6-(1,3,4-thiadiazol-2-ylsulfanylmethyl)morpholin-2-yl]ethyl]phenyl]amino]-2-oxo-ethyl]carbamate] | 7.90 |
| COC(=O)N[C@H](C(=O)Nc1ccccc1CC[C@@H]1CN[C@H](C)[C@@H](CSc2nc(C(F)(F)F)nc3ccccc23)O1)C(c1ccccc1)c1ccccc1 [Example 14, methyl N-[(1S)-1-benzhydryl-2-[[2-[2-[(2R,5R,6S)-5-methyl-6-[[2-(trifluoromethyl)quinazolin-4-yl]sulfanylmethyl]morpholin-2-yl]ethyl]phenyl]amino]-2-oxo-ethyl]carbamate] | 7.85 |
| CCC(O)(c1cnc(SC[C@H]2O[C@H](CCc3ccccc3NC(=O)[C@@H](NC(=O)OC)C(c3ccccc3)c3ccccc3)CN[C@@H]2C)s1)C(F)(F)F (stereo partly drawn) [Example 15, methyl N-[(1S)-1-benzhydryl-2-[[2-[2-[(2R,5R,6S)-6-[[5-[1-hydroxy-1-(trifluoromethyl)propyl]thiazol-2-yl]sulfanylmethyl]-5-methyl-morpholin-2-yl]ethyl]phenyl]amino]-2-oxo-ethyl]carbamate] | 7.75 |
| COC(=O)N[C@H](C(=O)Nc1ccccc1CC[C@@H]1CN[C@H](C)[C@@H](CSc2nc(C)c(C)o2)O1)C(c1ccccc1)c1ccccc1 [Example 16, methyl N-[(1S)-1-benzhydryl-2-[[2-[2-[(2R,5R,6S)-6-[(4,5-dimethyloxazol-2-yl)sulfanylmethyl]-5-methyl-morpholin-2-yl]ethyl]phenyl]amino]-2-oxo-ethyl]carbamate] | 7.67 |
| COC(=O)N[C@H](C(=O)Nc1ccccc1CC[C@@H]1CN[C@H](C)[C@@H](CSc2nc3ccc(OC(F)F)cc3[nH]2)O1)C(c1ccccc1)c1ccccc1 [Example 17, methyl N-[(1S)-1-benzhydryl-2-[[2-[2-[(2R,5R,6S)-6-[[5-(difluoromethoxy)-1H-benzimidazol-2-yl]sulfanylmethyl]-5-methyl-morpholin-2-yl]ethyl]phenyl]amino]-2-oxo-ethyl]carbamate] | 7.60 |
| COC(=O)N[C@H](C(=O)Nc1ccccc1CC[C@@H]1CN[C@H](C)[C@@H](CSc2nc(C)cc(C(F)(F)F)n2)O1)C(c1ccccc1)c1ccccc1 [Example 18, methyl N-[(1S)-1-benzhydryl-2-[[2-[2-[(2R,5R,6S)-5-methyl-6-[[4-methyl-6-(trifluoromethyl)pyrimidin-2-yl]sulfanylmethyl]morpholin-2-yl]ethyl]phenyl]amino]-2-oxo-ethyl]carbamate] | 7.46 |
| COC(=O)N[C@H](C(=O)Nc1ccccc1CC[C@@H]1CN[C@H](C)[C@@H](CSc2ccncc2)O1)C(c1ccccc1)c1ccccc1 [Example 19, methyl N-[(1S)-1-benzhydryl-2-[[2-[2-[(2R,5R,6S)-5-methyl-6-(4-pyridylsulfanylmethyl)morpholin-2-yl]ethyl]phenyl]amino]-2-oxo-ethyl]carbamate] | 7.38 |
| COC(=O)N[C@H](C(=O)Nc1ccccc1CC[C@@H]1CN[C@H](C)[C@@H](CSc2ncccc2C(F)(F)F)O1)C(c1ccccc1)c1ccccc1 [Example 20, methyl N-[(1S)-1-benzhydryl-2-[[2-[2-[(2R,5R,6S)-5-methyl-6-[[3-(trifluoromethyl)-2-pyridyl]sulfanylmethyl]morpholin-2-yl]ethyl]phenyl]amino]-2-oxo-ethyl]carbamate] | 7.36 |
| COC(=O)N[C@H](C(=O)Nc1ccccc1CC[C@@H]1CN[C@H](C)[C@@H](CSc2nc3ccc(Cl)nc3s2)O1)C(c1ccccc1)c1ccccc1 [Example 21, methyl N-[(1S)-1-benzhydryl-2-[[2-[2-[(2R,5R,6S)-6-[(5-chlorothiazolo[5,4-b]pyridin-2-yl)sulfanylmethyl]-5-methyl-morpholin-2-yl]ethyl]phenyl]amino]-2-oxo-ethyl]carbamate] | 7.35 |
| COC(=O)N[C@H](C(=O)Nc1ccccc1CC[C@@H]1CN[C@H](C)[C@@H](CSc2nc3ncccc3[nH]2)O1)C(c1ccccc1)c1ccccc1 [Example 22, methyl N-[(1S)-1-benzhydryl-2-[[2-[2-[(2R,5R,6S)-6-(1H-imidazo[4,5-b]pyridin-2-ylsulfanylmethyl)-5-methyl-morpholin-2-yl]ethyl]phenyl]amino]-2-oxo-ethyl]carbamate] | 7.35 |
| COC(=O)N[C@H](C(=O)Nc1ccccc1CC[C@@H]1CN[C@H](C)[C@@H](CSc2ncnc3c2ncn3[C@@H]2O[C@H](CO)[C@@H](O)[C@H]2O)O1)C(c1ccccc1)c1ccccc1 [Example 23, methyl N-[(1S)-1-benzhydryl-2-[[2-[2-[(2R,5R,6S)-6-[[9-[(2R,3R,4S,5R)-3,4-dihydroxy-5-(hydroxymethyl)tetrahydrofuran-2-yl]purin-6-yl]sulfanylmethyl]-5-methyl-morpholin-2-yl]ethyl]phenyl]amino]-2-oxo-ethyl]carbamate] | 7.28 |
| COC(=O)N[C@H](C(=O)Nc1ccccc1CC[C@@H]1CN[C@H](C)[C@@H](CSc2nc[nH]n2)O1)C(c1ccccc1)c1ccccc1 [Example 24, methyl N-[(1S)-1-benzhydryl-2-[[2-[2-[(2R,5R,6S)-5-methyl-6-(1H-1,2,4-triazol-3-ylsulfanylmethyl)morpholin-2-yl]ethyl]phenyl]amino]-2-oxo-ethyl]carbamate] | 7.23 |
| COC(=O)N[C@H](C(=O)Nc1ccccc1CC[C@@H]1CN[C@H](C)[C@@H](CSc2nc(N)c3cn[nH]c3n2)O1)C(c1ccccc1)c1ccccc1 [Example 25, methyl N-[(1S)-1-[[2-[2-[(2R,5R,6S)-6-[(4-amino-1H-pyrazolo[3,4-d]pyrimidin-6-yl)sulfanylmethyl]-5-methyl-morpholin-2-yl]ethyl]phenyl]carbamoyl]-2,2-diphenyl-ethyl]carbamate] | 7.00 |
| COC(=O)N[C@H](C(=O)Nc1ccccc1CC[C@@H]1CN[C@H](C)[C@@H](CSc2nnc(CN3CCCC3)o2)O1)C(c1ccccc1)c1ccccc1 [Example 26, methyl N-[(1S)-1-benzhydryl-2-[[2-[2-[(2R,5R,6S)-5-methyl-6-[[5-(pyrrolidin-1-ylmethyl)-1,3,4-oxadiazol-2-yl]sulfanylmethyl]morpholin-2-yl]ethyl]phenyl]amino]-2-oxo-ethyl]carbamate] | 6.91 |
| COC(=O)N[C@H](C(=O)Nc1ccccc1CC[C@@H]1CN[C@H](C)[C@@H](CSc2nc(C)cc(C)c2C#N)O1)C(c1ccccc1)c1ccccc1 [Example 27, methyl N-[(1S)-1-benzhydryl-2-[[2-[2-[(2R,5R,6S)-6-[(3-cyano-4,6-dimethyl-2-pyridyl)sulfanylmethyl]-5-methyl-morpholin-2-yl]ethyl]phenyl]amino]-2-oxo-ethyl]carbamate] | 6.90 |
| COC(=O)N[C@H](C(=O)Nc1ccccc1CC[C@@H]1CN[C@H](C)[C@@H](CSc2nnnn2CCN(C)C)O1)C(c1ccccc1)c1ccccc1 [Example 28, methyl N-[(1S)-1-benzhydryl-2-[[2-[2-[(2R,5R,6S)-6-[[1-(2-dimethylaminoethyl)tetrazol-5-yl]sulfanylmethyl]-5-methyl-morpholin-2-yl]ethyl]phenyl]amino]-2-oxo-ethyl]carbamate] | 6.67 |
| COC(=O)N[C@H](C(=O)Nc1ccccc1CC[C@@H]1CN[C@H](C)[C@@H](CSc2ncc[nH]2)O1)C(c1ccccc1)c1ccccc1 [Example 29, methyl N-[(1S)-1-benzhydryl-2-[[2-[2-[(2R,5R,6S)-6-(1H-imidazol-2-ylsulfanylmethyl)-5-methyl-morpholin-2-yl]ethyl]phenyl]amino]-2-oxo-ethyl]carbamate] | 6.63 |
| COC(=O)N[C@H](C(=O)Nc1ccccc1CC[C@@H]1CN[C@H](COC(C)=O)[C@@H](CSc2nnc(-c3ccncc3)o2)O1)C(c1ccccc1)c1ccccc1 [Example 30, [(2S,3R,6R)-6-[2-(2-{[N-(methoxycarbonyl)-β-phenyl-L-phenylalanyl]amino}phenyl)ethyl]-2-({[5-(pyridin-4-yl)-1,3,4-oxadiazol-2-yl]sulfanyl}methyl)morpholin-3-yl]methyl acetate] | 10.48 |
